Assay results as given in patent US5635379A, “D-2-alkyl-tryptophan and peptides containing same” (Deghenghi; Romano, priority 1990, dated 1997).
Square brackets hold non-standard residues; d marks the D form. Peptide text beside a SMILES is read from it. dTrp(2-Me) = Cc1[nH]c2ccccc2c1C[C@@H](N)C(=O)O

Legend:
Growth Hormone release = test: GH release in 10-day old rats after subcutaneous injection; assay type: in vivo; details: s.c. 160 μg/kg
Procedure: The peptides of Examples 4 and 5 were tested as Growth Hormone releasers in rats. GH released in a series of seven 10-day old rats, injected subcutaneously with a standard dose of 160 μg/kg and sacrificed 15 minutes after the injection.

GH release [1] = test: GH-releasing activity i.v. in male rats anesthetized with ketamine and xilazine; assay type: in vivo, Sprague Dawley rats
Procedure: (§1) Male Sprague Dawley rats (Charles River, Calco, Italy) of 2-3 months of age were used. Rats were housed at 22 +2° C., with lighting cycle of 14 h light: 10 h dark (lights on from 06.00 to 20.00 h), at least 10 days before starting the experiments. A standard dry diet and water were available ad libitum.
(§2) Between 09.00-10.00 h rats were anesthetized with ketamine (58 mg/kg, Inoketam, VIRBAC, Milano) and xilazine (12 mg/kg, Rompun, Bayer, Milano). Thirty minutes later, a blood sample ([…]) was withdrawn from the exposed jugular vein, peptides were injected intravenously or subcutaneously, and further blood samples were collected 10, 20 and 30 minutes later.
(§3) Medium and plasma GH was measured by radioimmunoassay using materials supplied by the NIADDK Bethesda, Md. Values were expressed in term of NIASSK-rat-GH-RP-2 standard (potency 2 IU/ml), as ng/ml of medium or plasma.
(§4) The minimum detectable value of rat was 1.0 ng/ml; intra-assay variability was 6%. To avoid inter-assay variation, samples from each experiment were assayed simultaneously.

GH release [2] = test: GH-releasing activity s.c. in male rats anesthetized with ketamine and xilazine; assay type: in vivo, Sprague Dawley rats
Procedure: as §1, §2, §3, §4

GH release [3] = test: GH release in pentobarbital-anesthetized rats, s.c.; assay type: in vivo, Sprague Dawley rats
Procedure: Male Sprague Dawley rats weighing 225-250 g were divided in groups of five animals each. Rats were anesthetized with Nembutal injected intraperiteonally at 50 mg/kg, fifteen minutes prior to the first blood withdrawal taken over heparin by cardiac puncture (for determination of basal GH).
Subcutaneous injections of either HEXARELIN or GHRP-6 were given immediately after the first blood collection, and additional blood samples were collected 15 and 40 minutes later.
Measurement of rat GH was performed by a standard double antibody radioimmunoassay with reagents supplied by the National Pituitary Agency and the National Institute of Arthritis, Diabetes, and Digestive and Kidney Diseases. The standards used were NIADDK-NIH-rGH-RP-2. Statistical data were obtained with the Student's t Test at a significance level of 5%.

[4] = Acute cardiovascular toxicity in the rat, single i.v. dose, mortality; assay type: in vivo; details: for Dead rats/Total N° of rats per group: observed up to 4 hours
Procedure: These two peptides were also tested for acute cardiovascular toxicity in the rat.
Dosages were calculated on the basis of the declared peptide content in each product, as specified below:
A single dose of HEXARELIN or GHRP-6 was administered to rats in different calendar dates in such a way that each group/dose should be treated in two subsequent days.
For each compound, appropriate amounts of solutions in 0.9% NaCl for injection were prepared just before treatment at the suitable concentrations. The solutions were sterilized by filtration (Millipore filter, pore size 0.22 μm). Owing to the type of the study (acute study) in which formulates were administered just after preparation, stability checks were not performed. Concentration checks were also not performed. The volume of solution injected was maintained constant at 1 ml/Kg.
The intravenous injections were done as a single dose in one vein of the tail with an appropriately gauged sterile, disposable, plastic syringe. The injection rate was about 0.1 ml/sec.
Periodical observations were made up to 4 hours after treatment. Abnormality and mortality were recorded. Body weight was recorded once during pre-trial and on the administration day to calculate the volumes to be injected.

GH release [5] = test: GH response in conscious, freely-moving rats after antiserum pretreatment and i.v. peptide; assay type: in vivo
Procedure: Sixty male rats were prepared with indwelling venous catheters under ether anesthesia three days before experimentation. On the day of experimentation, all animals were given an iv heparin injection (100 IU; 0630 h). At 0700 h, animals were treated with 0.5 ml of either normal serum (control-as), somatostatin antiserum (somatostatin-as; 0.25 ml+0.25 ml saline), growth hormone-releasing hormone antiserum (GHRH-as; 0.25 ml+0.25 ml saline), or both somatostatin antiserum and growth hormone-releasing hormone antiserum (0.25 ml somatostatin-as+0.25 ml GHRH-as). Blood sampling began […] after antiserum pretreatment, with blood samples collected every 20 minutes for three hours. After the 180 minute sample (1100 h), animals were treated iv with 25 μg/kg of either Hexarelin or GHRP-6. Blood samples were then collected at 5, 10, 15, 20 30, 40, and 60 minutes after peptide treatment. All samples were centrifuged immediately and the plasma frozen until assayed. The peak GH response to Hexarelin and GHRP-6 as well as the area under the response curves (AUCs) for the thirty minutes following peptide injection were calculated. Data were subjected to repeated measures analysis of variance and are expressed as mean ±SEM.

[6] = Hydrophobicity comparison (FIG. 12); assay type: physicochemical
growth hormone secretion = test: Growth hormone secretion in young healthy male volunteers; assay type: in vivo, human; details: young (20-30 years old) healthy male volunteers, various dosages
Procedure: The effects of HEXARELIN on growth hormone secretion in young (20-30 years old) healthy male volunteers were measured after the administration of various dosages.

[7] = i.v. 25 μg/kg peptide, pooled over antiserum pretreatments

## Cc1[nH]c2ccccc2c1C[C@@H](NC(=O)[C@@H](N)Cc1cnc[nH]1)C(=O)N[C@@H](C)C(=O)N[C@@H](Cc1c[nH]c2ccccc12)C(=O)N[C@H](Cc1ccccc1)C(=O)N[C@@H](CCCCN)C(N)=O [Example 4, His-D-2-methyl-Trp-Ala-Trp-D-Phe-Lys-NH2] (H-H[dTrp(2-Me)]AW[dF]K-NH2)
Growth Hormone release
  activity as Growth Hormone releaser: very active
Growth Hormone release; sacrificed 15 minutes after injection
  GH: 201 ng/mL
GH release [1]; i.v. 150 μg/kg, 10 min
  plasma GH: 412.7 ± 39.7 ng/mL
GH release [1]; i.v. 150 μg/kg, 20 min
  plasma GH: 132.2 ± 12.7 ng/mL
GH release [1]; i.v. 150 μg/kg, 30 min
  plasma GH: 44.0 ± 6.0 ng/mL
GH release [1]; i.v. 150 μg/kg, time 0 min (before injection)
  plasma GH: 15.0 ± 2.9 ng/mL
GH release [1]; i.v. 300 μg/kg, 10 min
  plasma GH: 438.5 ± 26.8 ng/mL
GH release [1]; i.v. 300 μg/kg, 20 min
  plasma GH: 213.8 ± 34.2 ng/mL
GH release [1]; i.v. 300 μg/kg, 30 min
  plasma GH: 48.1 ± 8.8 ng/mL
GH release [1]; i.v. 300 μg/kg, time 0 min (before injection)
  plasma GH: 13.5 ± 2.0 ng/mL
GH release [1]; i.v. 600 μg/kg, 10 min
  plasma GH: 478.3 ± 19.8 ng/mL
GH release [1]; i.v. 600 μg/kg, 20 min
  plasma GH: 164.2 ± 13.2 ng/mL
GH release [1]; i.v. 600 μg/kg, 30 min
  plasma GH: 54.5 ± 13.3 ng/mL
GH release [1]; i.v. 600 μg/kg, time 0 min (before injection)
  plasma GH: 18.4 ± 4.3 ng/mL
GH release [1]; i.v. 150, 300 and 600 μg/kg, 10 and 20 minutes after administration
  effect on plasma GH concentrations: significant increases
GH release [2]; s.c. 150 μg/kg, 10 min
  plasma GH: 107.1 ± 17.7 ng/mL
GH release [2]; s.c. 150 μg/kg, 20 min
  plasma GH: 156.6 ± 18.7 ng/mL
GH release [2]; s.c. 150 μg/kg, 30 min
  plasma GH: 86.0 ± 18.9 ng/mL
GH release [2]; s.c. 150 μg/kg, time 0 min (before injection)
  plasma GH: 12.0 ± 4.0 ng/mL
GH release [2]; s.c. 300 μg/kg, 10 min
  plasma GH: 80.6 ± 11.0 ng/mL
GH release [2]; s.c. 300 μg/kg, 20 min
  plasma GH: 171.7 ± 22.0 ng/mL
GH release [2]; s.c. 300 μg/kg, 30 min
  plasma GH: 102.7 ± 17.0 ng/mL
GH release [2]; s.c. 300 μg/kg, time 0 min (before injection)
  plasma GH: 12.0 ± 4.0 ng/mL
GH release [2]; s.c. 600 μg/kg, 10 min
  plasma GH: 90.7 ± 16.6 ng/mL
GH release [2]; s.c. 600 μg/kg, 20 min
  plasma GH: 187.5 ± 15.4 ng/mL
GH release [2]; s.c. 600 μg/kg, 30 min
  plasma GH: 115.3 ± 19.1 ng/mL
GH release [2]; s.c. 600 μg/kg, time 0 min (before injection)
  plasma GH: 23.0 ± 6.0 ng/mL
GH release [2]; s.c. 150, 300 and 600 μg/kg, 10, 20 and 30 minutes
  effect on plasma GH, comparison with GHRP-6: more effective than GHRP-6 at all the considered times
GH release [3]; s.c. 10 μg/kg, 0 min (basal)
  POST-DRUG PLASMA GH: 63 ± 58 ng/mL
GH release [3]; s.c. 10 μg/kg, 15 min
  POST-DRUG PLASMA GH: 95 ± 44 ng/mL
GH release [3]; s.c. 10 μg/kg, 40 min
  POST-DRUG PLASMA GH: 88 ± 29 ng/mL
GH release [3]; s.c. 25 μg/kg, 0 min (basal)
  POST-DRUG PLASMA GH: 56 ± 21 ng/mL
GH release [3]; s.c. 25 μg/kg, 15 min
  POST-DRUG PLASMA GH: 388 ± 99 ng/mL
GH release [3]; s.c. 25 μg/kg, 40 min
  POST-DRUG PLASMA GH: 100 ± 51 ng/mL
GH release [3]; s.c. 50 μg/kg, 0 min (basal)
  POST-DRUG PLASMA GH: 32 ± 16 ng/mL
GH release [3]; s.c. 50 μg/kg, 15 min
  POST-DRUG PLASMA GH: 439 ± 69 ng/mL
GH release [3]; s.c. 50 μg/kg, 40 min
  POST-DRUG PLASMA GH: 81 ± 13 ng/mL
[4]; single i.v. dose 5.0 mg/kg
  Dead rats/Total N° of rats per group: 0/6
[4]; single i.v. dose 7.5 mg/kg
  Dead rats/Total N° of rats per group: 1/6
[4]; single i.v. dose 10 mg/kg
  Dead rats/Total N° of rats per group: 2/6
[4]; single i.v. dose, mortality
  toxicity compared with GHRP-6: less toxic than GHRP-6
GH release [5]; [7]
  Mean GH: 235 ± 21 ng/mL
  Peak GH: 552 ± 59 ng/mL
GH release [5]; i.v. 25 μg/kg peptide, thirty minutes following injection, pooled over antiserum pretreatments
  GH AUC: 7366 ± 912 ng/ml/30 min
GH release [5]; i.v. 25 μg/kg, pooled results
  overall GH response compared with GHRP-6: more effective in eliciting a higher mean GH response as compared to GHRP-6
[6]
  hydrophobicity compared with GHRP-6: greater hydrophobicity than GHRP-6
Growth hormone secretion
  effect on growth hormone secretion: effective in vivo
